Experiments:
[1] = biological target: BK currents (CHO cells permanently transfected with cloned α-hSlo and β-bSlo) (Homo sapiens, UniProt Q12791); experiment: Electrophysiological studies: whole-cell patch-clamp of BK currents; assay type: cell-based; settings: ratio of current increase after application of compound (20 μM) relative to the control current before compound application; steady-state
Protocol: Electrophysiological Studies:
CHO cells permanently transfected with cloned α-hSlo and β-bSlo were maintained as described above and used for electrophysiological characterisation. The whole-cell configuration of the patch-lamp technique was used to determine the effect of modulators on BK currents in these cells. The cell line expressing functional BK currents (Zhou et al., Pflügers Arch. 436, p. 725 (1998)) were plated onto glass cover slips with a density of 1-5×10^4 cells/cover slip, incubated (37° C., 5% CO2) and used for patch-lamp experiments within 24-48 h. Cells were bathed in mammalian ringer solutions containing (in mM): 160NaCl, 4.5KCl, 2CaCl2, 1MgCl2, 10HEPES, adjusted to pH 7.4, 290-310 mOsm. The internal pipette solution contained (in mM): 160KCl, 2CaCl2, 1MgCl2, 10 HEPES, EGTA was added to reach a free [Ca^2+]internal=1×10^−6M, adjusted to pH 7.2, 290-310 mOsm. Borosilicate pipettes with a resistance of 2-3 MΩ were filled with the internal solution and mounted on an appropriate holder. […]
After addition of the compounds to the bath solution their modulating effect was determined by the increase or decrease of specific BK currents after reaching steady-state relative to the BK current before application of drugs (see Table II).

[2] = biological target: BK channels (CHO cells permanently transfected with cloned hSlo, α-hSlo and β-bSlo) (Homo sapiens, UniProt Q12791); experiment: Em-Assay: fluorescence membrane potential assay with voltage sensitive dye DiBAC(4)3; assay type: cell-based; settings: ratio of the compound effect (50 μM) compared to the maximal effect of NS004 (25 or 50 μM)
Excerpt: The large conductance, voltage-dependent and Ca^2+-activated potassium channel BK is a potassium selective ion channel and belongs to the subfamily of KCa channels. Four BK alpha-subunits form a functional channel that can be regulated by intracellular Ca^2+ concentration, membrane voltage, and other mechanisms like phosphorylation states or beta subunits. To test the biological activity of the compounds, we applied two different techniques, a fluorescence based assay using a voltage sensitive dye (Em-Assay) as well as exploiting electrophysiological methods.
CHO cells permanently transfected with cloned hSlo (α-hSlo and β-bSlo), yielding typical BK potassium currents (Zhou et al., Pflügers Arch., 436: 725-734 (1998), were used for the evaluation of compound activity. Activation or inhibition of BK channels in these cells leads to a change of the electrochemical gradient causing a hyperpolarized or depolarised membrane potential, respectively.
To determine changes in the membrane potential of the cells we used the voltage sensitive dye DiBaC(4)3 (Molecular Probes) in a kinetic assay system using a fluorescent plate reader (Manning and Sontheimer, J. Neurosci. Meth., 91: 73-81 (1999). The anionic bis-oxonol DiBAC(4)3 is a voltage sensitive dye which partitions from the extracellular environment into the cell where it reversibly binds to intracellular proteins, a kinetic process depending on the membrane potential of the cell. At depolarised potentials (i.e. at a reduced K^+ efflux due to blocked K^+ channels) the dye accumulates in the cell leading to an increased fluorescence intensity, due to its increased fluorescence if bound to cellular proteins. At hyperpolarized potentials (i.e. at an increased K^+ efflux due to the opening of K^+ channels), the dye partitions out of the cell causing a decreased fluorescence intensity.
hslo transfected CHO cells where maintained in DMEM supplemented with 10% FCS, 250 μg/ml Geneticin, 100 μg/m Hygromycin, 1×HT-Supplement, and 1×Non-essential Amino Acids and cultured in a humidified CO2 incubator. After trypsination, cells where plated with a density of 5×10^4 cells per well on a clear 96-well plate and incubated for 24 h. Cells where washed once with PBS, once with PBS containing 20 mM HEPES (adjusted to pH 7.4 with NaOH) and 2 μM DiBAC(4)3 (DPBS-DiBAC solution). 180 μl of the dPBS-DiBAC solution was then added to the cells and the plate incubated for 30-60 min at 37° C. During this time the dye could partition into the cells and reach a certain steady-state distribution, depending on the resting membrane potential. Test and reference compounds were stored as DMSO stock solutions and diluted in dPBS-DiBAC solution to the desired concentration.
Fluorescence intensity (Ex.: 485 nm/Em.: 520 nm) of each well was detected in the plate reader (Fluostar, BMG) every 60 seconds. After recording the baseline fluorescence for 7 minutes, 20 μl test- and reference compounds were added and the fluorescence intensity was detected for additional 15 minutes. Background was subtracted, data values were normalized and expressed as a change in fluorescence intensity against time. The change in fluorescence intensity caused by the test compounds was evaluated, compared to the effect of the reference compound NS004, and the ratio was determined (see Table I).

Chain of BK channels (CHO cells permanently transfected with cloned hSlo, α-hSlo and β-bSlo) (Q12791 whole entry): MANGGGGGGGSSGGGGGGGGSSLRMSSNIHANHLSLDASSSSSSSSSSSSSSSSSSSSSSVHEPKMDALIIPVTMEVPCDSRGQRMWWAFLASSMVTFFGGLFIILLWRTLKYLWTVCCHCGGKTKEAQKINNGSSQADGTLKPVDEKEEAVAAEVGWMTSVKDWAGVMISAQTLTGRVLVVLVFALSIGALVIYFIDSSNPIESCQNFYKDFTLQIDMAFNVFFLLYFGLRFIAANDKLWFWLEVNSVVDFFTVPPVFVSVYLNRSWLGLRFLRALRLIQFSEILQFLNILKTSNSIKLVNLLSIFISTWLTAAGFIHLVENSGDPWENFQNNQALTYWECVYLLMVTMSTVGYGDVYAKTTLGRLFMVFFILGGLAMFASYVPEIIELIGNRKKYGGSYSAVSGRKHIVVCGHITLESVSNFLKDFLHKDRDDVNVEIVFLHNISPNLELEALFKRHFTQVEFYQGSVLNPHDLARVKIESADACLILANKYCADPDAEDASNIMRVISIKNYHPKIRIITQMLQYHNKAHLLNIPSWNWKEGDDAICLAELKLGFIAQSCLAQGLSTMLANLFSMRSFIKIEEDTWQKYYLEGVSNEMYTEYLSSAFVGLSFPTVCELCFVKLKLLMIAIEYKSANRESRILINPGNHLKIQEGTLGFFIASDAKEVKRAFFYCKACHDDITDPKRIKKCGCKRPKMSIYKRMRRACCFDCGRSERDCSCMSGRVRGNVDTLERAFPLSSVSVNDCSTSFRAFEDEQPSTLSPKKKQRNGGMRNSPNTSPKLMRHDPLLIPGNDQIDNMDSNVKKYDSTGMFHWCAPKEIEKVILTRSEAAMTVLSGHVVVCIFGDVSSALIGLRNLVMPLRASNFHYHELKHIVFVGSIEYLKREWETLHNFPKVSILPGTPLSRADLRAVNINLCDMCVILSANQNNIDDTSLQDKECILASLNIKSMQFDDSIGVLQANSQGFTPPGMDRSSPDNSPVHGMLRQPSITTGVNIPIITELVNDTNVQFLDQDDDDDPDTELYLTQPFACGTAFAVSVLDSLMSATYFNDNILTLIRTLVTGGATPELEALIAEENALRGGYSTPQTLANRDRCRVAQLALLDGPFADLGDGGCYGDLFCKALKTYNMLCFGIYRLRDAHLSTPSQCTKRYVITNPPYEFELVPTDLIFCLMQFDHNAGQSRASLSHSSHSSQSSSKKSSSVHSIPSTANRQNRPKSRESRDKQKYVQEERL
Chain of BK channels (CHO cells permanently transfected with cloned hSlo, α-hSlo and β-bSlo) (Q28067 whole entry partner): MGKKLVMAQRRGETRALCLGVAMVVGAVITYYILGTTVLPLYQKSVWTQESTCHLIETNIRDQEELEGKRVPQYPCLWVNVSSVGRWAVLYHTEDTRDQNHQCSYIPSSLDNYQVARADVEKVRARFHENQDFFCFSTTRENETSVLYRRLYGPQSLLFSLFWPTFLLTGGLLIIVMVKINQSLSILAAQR
Chain of BK currents (CHO cells permanently transfected with cloned α-hSlo and β-bSlo) (Q12791 whole entry): as the sequence (Q12791 whole entry) above
Chain of BK currents (CHO cells permanently transfected with cloned α-hSlo and β-bSlo) (Q28067 whole entry partner): as the sequence (Q28067 whole entry partner) above

Row | Effect [1] | Em effect [2] | Compound
1 | + (<1.2 = +) | + (0-1=+) | COc1cc2c(c(OC)c1)C(c1cccc(OC(F)(F)F)c1)N(C(=O)c1ccc(OC(F)(F)F)cc1)CC2 (stereo not shown) [Compound 30, [6,8-Dimethoxy-1-(3-tifluoromethoxy-phenyl)-3,4-dihydro-1H-isoquinolin-2-yl](4-trifluoromethoxy-phenyl)-metanone]
2 |  | + (0-1=+) | COc1ccc(C(=O)N2CCc3cc(OC)cc(OC)c3C2c2cccc(OC(F)(F)F)c2)cc1 (stereo not shown) [Compound 31, [6,8-Dimethoxy-1-(3-trifluoromethoxy-phenyl)-3,4-dihydro-1H-isoquinolin-2-yl]-(4-methoxy-phenyl)-methanone]
3 |  | + (0-1=+) | COc1cc2c(c(OC)c1)C(c1cccc(OC(F)(F)F)c1)N(C(=O)c1ccc(NC(C)=O)cc1)CC2 (stereo not shown) [Compound 32, N-{4-[6,8-Dimethoxy-1-(3-trifluoro-methoxy-phenyl)-3,4-dihydro-1H-isoquinoline-2-carbonyl]-phenyl}-acetamide]
4 |  | + (0-1=+) | COc1cc2c(c(OC)c1)C(c1cccc(OC(F)(F)F)c1)N(S(=O)(=O)c1cc(C(F)(F)F)ccc1[N+](=O)[O-])CC2 (stereo not shown) [Compound 34, 6,8-Dimethoxy-2-(2-nitro-5-trifluoromethyl-benzenesulfonyl)-1-(3-trifluoromethoxy-phenyl)-1,2,3,4-tetrahydro-isoquinoline]
5 |  | + (0-1=+) | COc1cc2c(c(OC)c1)C(c1cccc(OC(F)(F)F)c1)N(S(=O)(=O)c1cc(C(F)(F)F)cc(C(F)(F)F)c1)CC2 (stereo not shown) [Compound 35, 2-(3,5-Bis-trifluoromethyl-benzenesulfonyl)-6,8-dimethoxy-1-(3-trifluoromethoxy-phenyl)-1,2,3,4-tetrahydroisoquinoline]
6 | ++ (>1.2 = ++) | ++ (>1-1.5=++) | COc1cc2c(c(OC)c1)C(C)N(S(=O)(=O)c1cccc([N+](=O)[O-])c1)CC2 (stereo not shown) [Compound 36, 6,8-Dimethoxy-1-methyl-2-(3-nitro-benzenesulfonyl)-1,2,3,4-tetrahydro-isoquinoline]
7 |  | + (0-1=+) | COc1cc2c(c(OC)c1)C(C)N(S(=O)(=O)c1cc(C(F)(F)F)cc(C(F)(F)F)c1)CC2 (stereo not shown) [Compound 37, 2-(3,5-Bis-trifluoromethyl-benzenesulfonyl)-6,8-dimethoxy-1-methyl-1,2,3,4-tetra-hydroisoquinoline]
8 |  | + (0-1=+) | COc1cc2c(c(OC)c1)C(C)N(C(=O)c1cccc([N+](=O)[O-])c1)CC2 (stereo not shown) [Compound 38, (6,8-Dimethoxy-1-methyl-3,4-dihydro-1H-isoquinolin-2-yl)-(3-nitro-phenyl)-methanone]
9 |  | + (0-1=+) | COc1cc2c(c(OC)c1)C(C)N(C(=O)c1ccc(OC(F)(F)F)cc1)CC2 (stereo not shown) [Compound 39, (6,8-Dimethoxy-1-methyl-3,4-dihydro-1H-isoquinolin-2-yl)-(4-trifluoro-methoxy-phenyl)-methanone]
10 |  | + (0-1=+) | COc1ccc(C(=O)N2CCc3cc(OC)cc(OC)c3C2C)cc1 (stereo not shown) [Compound 40, (6,8-Dimethoxy-1-methyl-3,4-dihydro-1H-isoquinolin-2-yl)-(4-methoxy-phenyl)-methanone]
11 |  | + (0-1=+) | (3,5-Bis-trifluoromethoxy-phenyl)-[6,8-dimethoxy-1-(3-trifluoromethoxy-phenyl)-3,4-dihydro-1H-iso-quinolin-2-yl]-methanone [Compound 33]

— patent US20050070570A1, “Novel potassium channels modulators” (4SC AG, priority 2003, published 2005)
